pIC50: −log10 of the molar value. Calls of active or inactive are those of the source. The rule behind the calls is not given here.
Experiments:
Cytochrome P450 3A4 [1] = molecular target: T1, Cytochrome P450 3A4 (Homo sapiens, UniProt P08684); experiment: Inhibition of CYP3A4T in human liver microsomes using midazolam as substrate incubated for 10 mins in presence of NADPH by LC-MS/MS analysis; assay type: ADME
Cytochrome P450 3A4 [2] = molecular target: T1, Cytochrome P450 3A4; experiment: Inhibition of CYP3A4M in human liver microsomes using midazolam as substrate incubated for 10 mins in presence of NADPH by LC-MS/MS analysis; assay type: ADME
Cytochrome P450 2D6 = Cytochrome P450 2D6 (Homo sapiens, UniProt P10635); experiment: Inhibition of CYP2D6 in human liver microsomes using bufuralol as substrate incubated for 10 mins in presence of NADPH by LC-MS/MS analysis; assay type: ADME
Chain of Cytochrome P450 2D6 (P10635 whole entry): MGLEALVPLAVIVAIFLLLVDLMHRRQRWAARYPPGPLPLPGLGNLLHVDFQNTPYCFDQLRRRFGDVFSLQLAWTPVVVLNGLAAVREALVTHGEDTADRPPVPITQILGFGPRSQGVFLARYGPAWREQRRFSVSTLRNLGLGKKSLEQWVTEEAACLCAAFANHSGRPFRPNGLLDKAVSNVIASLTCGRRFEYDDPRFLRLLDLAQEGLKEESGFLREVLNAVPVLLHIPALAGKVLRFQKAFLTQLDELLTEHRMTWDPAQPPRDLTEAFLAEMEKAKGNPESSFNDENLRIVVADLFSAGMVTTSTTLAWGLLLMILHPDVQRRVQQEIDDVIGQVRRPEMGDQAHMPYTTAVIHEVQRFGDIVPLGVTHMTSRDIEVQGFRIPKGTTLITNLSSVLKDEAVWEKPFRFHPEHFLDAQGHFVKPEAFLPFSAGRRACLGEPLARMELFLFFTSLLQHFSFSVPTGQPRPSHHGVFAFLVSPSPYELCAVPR

Cytochrome P450 2C19 = Cytochrome P450 2C19 (Homo sapiens, UniProt P33261); experiment: Inhibition of CYP2C19 in human liver microsomes using S-mephenytoin as substrate incubated for 10 mins in presence of NADPH by LC-MS/MS analysis; assay type: ADME
Cytochrome P450 1A2 = Cytochrome P450 1A2 (Homo sapiens, UniProt P05177); experiment: Inhibition of CYP1A2 in human liver microsomes using phenacetin as substrate incubated for 10 mins in presence of NADPH by LC-MS/MS analysis; assay type: ADME
Chain of Cytochrome P450 1A2 (P05177 whole entry): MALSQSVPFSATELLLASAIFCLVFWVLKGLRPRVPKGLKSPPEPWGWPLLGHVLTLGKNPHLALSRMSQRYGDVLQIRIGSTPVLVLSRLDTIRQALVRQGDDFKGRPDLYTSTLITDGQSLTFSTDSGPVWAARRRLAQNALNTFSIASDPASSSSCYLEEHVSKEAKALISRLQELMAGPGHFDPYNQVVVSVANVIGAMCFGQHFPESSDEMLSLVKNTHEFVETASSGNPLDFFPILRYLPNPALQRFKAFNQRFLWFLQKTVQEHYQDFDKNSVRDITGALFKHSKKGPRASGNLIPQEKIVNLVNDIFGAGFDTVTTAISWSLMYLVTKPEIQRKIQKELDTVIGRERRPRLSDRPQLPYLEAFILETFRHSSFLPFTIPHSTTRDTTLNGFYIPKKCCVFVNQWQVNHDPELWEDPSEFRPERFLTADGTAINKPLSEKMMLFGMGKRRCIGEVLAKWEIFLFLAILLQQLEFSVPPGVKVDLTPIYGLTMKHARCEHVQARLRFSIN

[3] = Receptor occupancy at BTK in PBMC of ICR mouse at 15 mg/kg, po after 24 hrs by ELISA; assay type: functional
[4] = Receptor occupancy at BTK in spleen of ICR mouse at 15 mg/kg, po after 24 hrs by ELISA; assay type: functional
[5] = Drug concentration in ICR mouse plasma at 15 mg/kg, po after 2 hrs; assay type: ADME, organism-based
[6] = Toxicity in SFP CD-1 mouse assessed as pathological change in visceral organs at 10 to 1280 mg/kg, po administered for 7 days by H and E staining based assay; assay type: organism-based; conditions: in vivo, 168 h, dose 10-1280 mg/kg, time 7 day
[7] = Toxicity in SFP CD-1 mouse assessed as change in temperature at 10 to 1280 mg/kg, po administered for 7 days; assay type: organism-based; conditions: in vivo, 168 h, dose 10-1280 mg/kg, time 7 day
[8] = Toxicity in SFP CD-1 mouse assessed as change in behavior at 10 to 1280 mg/kg, po administered for 7 days; assay type: organism-based; conditions: in vivo, 168 h, dose 10-1280 mg/kg, time 7 day
[9] = Toxicity in SFP CD-1 mouse assessed as change in body weight at 10 to 1280 mg/kg, po administered for 7 days; assay type: organism-based; conditions: in vivo, 168 h, dose 10-1280 mg/kg, time 7 day
[10] = Oral bioavailability in Sprague-Dawley rat at 5 mg/kg measured upto 24 hrs by LC/MS/MS analysis; assay type: ADME, organism-based; conditions: in vivo
[11] = AUC in Sprague-Dawley rat at 5 mg/kg, po measured upto 24 hrs by LC/MS/MS analysis; assay type: ADME, organism-based; design: route oral, dose 5 mg/kg, time <=24; conditions: in vivo
[12] = Half life in Sprague-Dawley rat at 5 mg/kg, po measured upto 24 hrs by LC/MS/MS analysis; assay type: ADME, organism-based; conditions: in vivo
[13] = molecular target: T2, Tyrosine-protein kinase BTK (Homo sapiens, UniProt Q06187); experiment: Inhibition of full-length N-terminal GST tagged BTK (2 to 659 residues) (unknown origin) expressed in Sf21 insect cells using NH2-ETVYSEVRK-biotin as substrate preincubated for 1 hr followed by ATP addition and measured after 2 hrs by ELISA
T2 sequence (Q06187 whole entry, the tested form may be a part): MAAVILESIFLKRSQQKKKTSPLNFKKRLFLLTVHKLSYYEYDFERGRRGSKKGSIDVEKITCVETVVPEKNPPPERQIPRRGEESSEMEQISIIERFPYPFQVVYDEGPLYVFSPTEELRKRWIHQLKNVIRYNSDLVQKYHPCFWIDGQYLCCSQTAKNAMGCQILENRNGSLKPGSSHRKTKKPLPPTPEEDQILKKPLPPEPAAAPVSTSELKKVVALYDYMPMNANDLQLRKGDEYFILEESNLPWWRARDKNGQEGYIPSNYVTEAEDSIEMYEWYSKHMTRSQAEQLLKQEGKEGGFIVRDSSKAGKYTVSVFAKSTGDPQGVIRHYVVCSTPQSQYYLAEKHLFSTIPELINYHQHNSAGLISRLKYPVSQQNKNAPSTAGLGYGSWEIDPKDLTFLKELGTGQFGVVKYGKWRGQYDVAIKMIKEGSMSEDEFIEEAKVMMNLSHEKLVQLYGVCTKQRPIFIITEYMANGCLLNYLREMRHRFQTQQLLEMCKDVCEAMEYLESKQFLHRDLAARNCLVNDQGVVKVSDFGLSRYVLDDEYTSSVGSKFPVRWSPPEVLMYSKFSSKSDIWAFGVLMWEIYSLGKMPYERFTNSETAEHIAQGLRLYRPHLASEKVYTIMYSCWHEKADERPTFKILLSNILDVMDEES

[14] = molecular target: Tyrosine-protein kinase BTK (Homo sapiens, UniProt Q06187, C481S); experiment: Inhibition of BTK C481S mutant (unknown origin)
Chain of Tyrosine-protein kinase BTK (Homo sapiens, UniProt Q06187, C481S) (Q06187 2-659 C481S limits assumed): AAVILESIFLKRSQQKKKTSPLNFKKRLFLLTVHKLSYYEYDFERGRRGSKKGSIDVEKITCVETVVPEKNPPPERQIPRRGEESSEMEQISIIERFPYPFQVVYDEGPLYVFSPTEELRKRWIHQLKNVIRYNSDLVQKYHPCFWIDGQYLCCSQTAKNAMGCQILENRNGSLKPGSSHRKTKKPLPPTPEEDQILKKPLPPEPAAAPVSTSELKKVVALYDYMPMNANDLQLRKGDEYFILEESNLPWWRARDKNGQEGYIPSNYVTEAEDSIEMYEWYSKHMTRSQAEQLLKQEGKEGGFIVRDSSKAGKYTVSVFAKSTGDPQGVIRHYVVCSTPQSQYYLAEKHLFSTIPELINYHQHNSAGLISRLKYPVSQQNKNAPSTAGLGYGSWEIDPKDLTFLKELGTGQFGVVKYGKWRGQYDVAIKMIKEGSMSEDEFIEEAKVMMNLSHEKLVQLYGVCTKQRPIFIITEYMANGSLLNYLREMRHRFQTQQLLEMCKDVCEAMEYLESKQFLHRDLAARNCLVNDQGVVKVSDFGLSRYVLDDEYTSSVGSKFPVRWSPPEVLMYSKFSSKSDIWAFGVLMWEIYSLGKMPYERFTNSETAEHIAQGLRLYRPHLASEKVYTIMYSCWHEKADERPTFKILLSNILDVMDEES

[15] = molecular target: Tyrosine-protein kinase Tec (Homo sapiens, UniProt P42680); experiment: Inhibition of TEC (unknown origin)
Chain of Tyrosine-protein kinase Tec (P42680 whole entry): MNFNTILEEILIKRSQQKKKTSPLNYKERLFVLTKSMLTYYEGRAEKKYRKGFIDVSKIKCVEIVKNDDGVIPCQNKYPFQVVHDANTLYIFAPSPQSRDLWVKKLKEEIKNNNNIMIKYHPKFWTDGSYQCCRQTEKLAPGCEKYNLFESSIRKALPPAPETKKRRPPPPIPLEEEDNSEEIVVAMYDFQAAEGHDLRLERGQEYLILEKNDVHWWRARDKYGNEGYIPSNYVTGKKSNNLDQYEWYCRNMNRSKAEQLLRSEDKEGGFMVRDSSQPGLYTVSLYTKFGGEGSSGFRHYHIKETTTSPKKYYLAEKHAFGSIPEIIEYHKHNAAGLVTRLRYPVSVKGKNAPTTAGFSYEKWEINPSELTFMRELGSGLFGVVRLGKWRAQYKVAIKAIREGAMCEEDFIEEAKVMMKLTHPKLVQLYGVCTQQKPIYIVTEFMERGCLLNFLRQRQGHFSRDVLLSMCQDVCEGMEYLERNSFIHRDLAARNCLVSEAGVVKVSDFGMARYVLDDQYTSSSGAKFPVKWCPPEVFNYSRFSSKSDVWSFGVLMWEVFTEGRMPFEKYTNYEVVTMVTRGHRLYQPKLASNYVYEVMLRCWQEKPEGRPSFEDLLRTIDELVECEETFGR

[16] = molecular target: Tyrosine-protein kinase Blk (Homo sapiens, UniProt P51451); experiment: Inhibition of BLK (unknown origin)
Chain of Tyrosine-protein kinase Blk (P51451 whole entry): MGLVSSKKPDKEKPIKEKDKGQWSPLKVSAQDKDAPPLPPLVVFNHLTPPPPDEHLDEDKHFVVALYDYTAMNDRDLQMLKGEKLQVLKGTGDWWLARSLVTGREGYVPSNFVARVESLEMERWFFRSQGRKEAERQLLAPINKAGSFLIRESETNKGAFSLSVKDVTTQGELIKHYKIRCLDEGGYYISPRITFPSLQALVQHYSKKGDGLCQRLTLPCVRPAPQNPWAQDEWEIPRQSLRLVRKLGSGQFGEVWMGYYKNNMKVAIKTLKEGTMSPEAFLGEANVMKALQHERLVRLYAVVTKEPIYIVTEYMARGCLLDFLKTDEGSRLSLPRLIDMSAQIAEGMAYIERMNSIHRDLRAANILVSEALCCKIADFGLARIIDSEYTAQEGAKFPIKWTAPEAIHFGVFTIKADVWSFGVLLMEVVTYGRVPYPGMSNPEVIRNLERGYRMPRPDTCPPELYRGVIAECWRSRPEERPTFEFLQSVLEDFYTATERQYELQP

[17] = molecular target: Tyrosine-protein kinase Lyn (Homo sapiens, UniProt P07948); experiment: Inhibition of LYN (unknown origin)
[18] = molecular target: Tyrosine-protein kinase Fyn (Homo sapiens, UniProt P06241); experiment: Inhibition of FYN (unknown origin)
Chain of Tyrosine-protein kinase Fyn (P06241 whole entry): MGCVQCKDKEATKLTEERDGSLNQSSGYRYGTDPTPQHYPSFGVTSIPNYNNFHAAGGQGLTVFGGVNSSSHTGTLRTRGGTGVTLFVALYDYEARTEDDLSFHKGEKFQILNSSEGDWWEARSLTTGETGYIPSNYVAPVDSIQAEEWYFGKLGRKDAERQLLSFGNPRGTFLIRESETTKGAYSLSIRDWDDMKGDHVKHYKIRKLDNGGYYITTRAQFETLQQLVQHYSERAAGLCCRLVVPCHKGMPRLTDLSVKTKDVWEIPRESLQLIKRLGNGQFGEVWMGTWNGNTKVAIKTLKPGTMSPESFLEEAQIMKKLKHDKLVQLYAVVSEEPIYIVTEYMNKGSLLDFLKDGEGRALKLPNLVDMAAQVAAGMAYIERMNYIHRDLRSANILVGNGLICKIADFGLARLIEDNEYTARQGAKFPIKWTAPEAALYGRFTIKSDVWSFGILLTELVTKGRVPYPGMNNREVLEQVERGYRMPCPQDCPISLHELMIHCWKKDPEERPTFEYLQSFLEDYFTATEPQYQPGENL

[19] = molecular target: Tyrosine-protein kinase Lck (Homo sapiens, UniProt P06239); experiment: Inhibition of LCK (unknown origin)
Chain of Tyrosine-protein kinase Lck (P06239 whole entry): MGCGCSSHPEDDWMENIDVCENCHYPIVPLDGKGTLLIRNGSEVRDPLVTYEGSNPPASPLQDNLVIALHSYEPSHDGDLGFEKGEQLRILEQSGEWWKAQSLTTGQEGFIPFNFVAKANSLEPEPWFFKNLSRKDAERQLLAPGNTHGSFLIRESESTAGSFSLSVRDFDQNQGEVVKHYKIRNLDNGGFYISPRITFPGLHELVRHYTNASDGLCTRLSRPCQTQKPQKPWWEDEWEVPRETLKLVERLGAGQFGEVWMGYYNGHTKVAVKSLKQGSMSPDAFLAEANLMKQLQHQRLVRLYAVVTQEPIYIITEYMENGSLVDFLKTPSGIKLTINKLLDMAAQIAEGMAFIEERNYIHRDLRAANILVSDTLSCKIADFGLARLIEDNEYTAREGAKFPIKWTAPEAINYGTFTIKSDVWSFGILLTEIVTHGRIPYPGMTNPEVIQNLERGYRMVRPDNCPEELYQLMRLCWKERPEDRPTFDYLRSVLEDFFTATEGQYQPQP

Ramos = experiment: Antiproliferative activity against human Ramos cells assessed as reduction in cell viability incubated for 72 hrs by celltiter-glo assay
TMD8 [20] = experiment: Antiproliferative activity against human TMD8 cells assessed as reduction in cell viability incubated for 72 hrs by celltiter-glo assay; conditions: TMD8, 72 h
Raji = experiment: Antiproliferative activity against human Raji cells assessed as reduction in cell viability incubated for 72 hrs by celltiter-glo assay
NAMALVA = experiment: Antiproliferative activity against human NAMALWA cells assessed as reduction in cell viability incubated for 72 hrs by celltiter-glo assay
SU-DHL-2 = experiment: Antiproliferative activity against human SUDHL2 cells assessed as reduction in cell viability incubated for 72 hrs by celltiter-glo assay; conditions: SU-DHL-2, 72 h
TMD8 [21] = experiment: Induction of cell cycle arrest in human TMD8 cells assessed as accumulation of cells at G1 phase at 3 nM incubated for 48 hrs by PI staining based flow cytometric analysis (reference value: 57.66 %); assay type: functional
TMD8 [22] = experiment: Induction of cell cycle arrest in human TMD8 cells assessed as accumulation of cells at S phase at 3 nM incubated for 48 hrs by PI staining based flow cytometric analysis (reference value: 37.42 %); assay type: functional
TMD8 [23] = experiment: Induction of cell cycle arrest in human TMD8 cells assessed as accumulation of cells at S phase at 30 nM incubated for 48 hrs by PI staining based flow cytometric analysis (reference value: 37.42 %); assay type: functional
TMD8 [24] = experiment: Induction of cell cycle arrest in human TMD8 cells assessed as accumulation of cells at G2 phase at 30 nM incubated for 48 hrs by PI staining based flow cytometric analysis (reference value: 4.92 %); assay type: functional
TMD8 [25] = experiment: Induction of apoptosis in human TMD8 cells at 3000 nM incubated for 72 hrs by Annexin V-FITC/PI staining based flow cytometric analysis (reference value: 13.4 %); assay type: functional
[26] = molecular target: T2, Tyrosine-protein kinase BTK; experiment: Inhibition of BTK in human TMD8 cells assessed as reduction in PLCgamma2 phosphorylation at Tyr 1217 residue at 0 to 1000 nM after 4 hrs by Western blot analysis; assay type: cell-based; conditions: dose 0-1000 nM
[27] = Cmax in CB-17 SCID mouse xenografted with human TMD8 cells at 7.5 mg/kg, po bid administered for 21 days; assay type: ADME, organism-based; design: route oral, dose 7.5 mg/kg, time 21 day; conditions: in vivo
[28] = AUC(0 to 8 hrs) in CB-17 SCID mouse xenografted with human TMD8 cells at 7.5 mg/kg, po bid administered for 21 days; assay type: ADME, organism-based; design: route oral, time 21 day, dose 7.5 mg/kg; conditions: in vivo
TMD8 [29] = experiment: Antitumor activity against human TMD8 cells xenografted in CB-17 SCID nude mouse assessed as tumor growth inhibition at 7.5 mg/kg, po bid administered for 21 days; assay type: functional; conditions: 504 h, time 21 day, read-out: TGI
TMD8 [30] = experiment: Antitumor activity against human TMD8 cells xenografted in CB-17 SCID nude mouse assessed as tumor growth inhibition at 15 mg/kg, po bid administered for 21 days; assay type: functional; conditions: 504 h, time 21 day, read-out: TGI
[31] = Toxicity in CB-17 SCID mouse xenografted with human TMD8 cells assessed as change in body weight at 3.75 to 15 mg/kg, po bid administered for 21 days; assay type: organism-based; conditions: in vivo, 504 h, dose 3.75-15 mg/kg, time 21 day

T1 sequence (P08684 whole entry): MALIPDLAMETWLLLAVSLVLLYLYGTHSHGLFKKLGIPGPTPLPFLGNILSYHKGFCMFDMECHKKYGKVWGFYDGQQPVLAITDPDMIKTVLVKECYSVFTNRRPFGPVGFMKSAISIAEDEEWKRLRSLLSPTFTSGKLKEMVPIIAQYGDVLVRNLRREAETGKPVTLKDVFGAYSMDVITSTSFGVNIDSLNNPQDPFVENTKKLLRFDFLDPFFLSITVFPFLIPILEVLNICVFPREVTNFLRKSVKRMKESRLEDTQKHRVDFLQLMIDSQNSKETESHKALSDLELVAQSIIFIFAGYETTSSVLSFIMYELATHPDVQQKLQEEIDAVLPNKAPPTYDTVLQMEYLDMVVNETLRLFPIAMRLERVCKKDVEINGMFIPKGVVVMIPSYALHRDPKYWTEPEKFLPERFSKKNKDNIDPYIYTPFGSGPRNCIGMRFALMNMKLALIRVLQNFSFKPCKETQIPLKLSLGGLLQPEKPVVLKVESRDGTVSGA

Structure (SMILES): C=CC(=O)N1CCCC[C@H]1c1nc(-c2ccc(C(=O)Nc3cc(C(F)(F)F)ccn3)cc2)c(C(N)=O)n1N
- pIC50 (Cytochrome P450 3A4 [1]): < 5.00
- pIC50 (Cytochrome P450 3A4 [2]): < 5.00
- pIC50 (Cytochrome P450 2D6): < 5.00
- pIC50 (Cytochrome P450 2C19): < 5.00
- pIC50 (Cytochrome P450 1A2): < 5.00
- Occ [3]: 91%
- Occ [4]: 58%
- concentration at 2 h [5]: 640 nM
- Activity [6]: Non-Toxic
- Activity [7]: Non-Toxic
- Activity [8]: Non-Toxic
- Activity [9]: Non-Toxic
- bioavailability [10]: 31.4%
- AUC at 24 h [11]: 2000 ng·h/mL
- half-life [12]: 1.35 h
- pIC50 [13]: 8.57
- pIC50 [14]: < 5.00
- pIC50 [15]: 7.80
- pIC50 [16]: 6.77
- inhibition (INH) [17]: Not Active
- inhibition (INH) [18]: Not Active
- inhibition (INH) [19]: Not Active
- pIC50 (Ramos): 5.60
- pIC50 (TMD8 [20]): 7.60
- pIC50 (Raji): 5.37
- pIC50 (NAMALVA): 5.39
- pIC50 (SU-DHL-2): 5.26
- Activity (TMD8 [21]): 54.21%
- Activity (TMD8 [22]): 37.86%
- Activity (TMD8 [23]): 10.95%
- Activity (TMD8 [24]): 4.69%
- Activity (TMD8 [25]): 68.4%
- inhibition [26]: Active
- Cmax [27]: 1000 ng/mL
- AUC at 504 h [28]: 1780 ng·h/mL
- inhibition in vivo at 7.5 mg/kg (TMD8 [29]): 96%
- inhibition in vivo at 15 mg/kg (TMD8 [30]): 106%
- Activity [31]: Non-Toxic

Source: ChEMBL document CHEMBL4840351 (J Med Chem, 2021)
